Reference: ChEMBL document CHEMBL1133336, “Synthesis of a cyanopeptide-analogue with trypsin activating properties” (Bioorg Med Chem Lett, 2000)
pIC50: −log10 of the molar value.

Columns and labels:
Serine protease 1 [1] = target: T1, Serine protease 1 (Homo sapiens, UniProt P07477); experiment: Percent increase in the activity of trypsin by the compound at concentration between 20 mM and 40 mM
Plasminogen = Plasminogen (Homo sapiens, UniProt P00747); experiment: Compound was tested for inhibition of plasmin
Prothrombin = Prothrombin (Homo sapiens, UniProt P00734); experiment: Compound was tested for inhibition of thrombin
Serine protease 1 [2] = target: T1, Serine protease 1; experiment: Compound was tested for inhibition of trypsin

T1 sequence (P07477 whole entry): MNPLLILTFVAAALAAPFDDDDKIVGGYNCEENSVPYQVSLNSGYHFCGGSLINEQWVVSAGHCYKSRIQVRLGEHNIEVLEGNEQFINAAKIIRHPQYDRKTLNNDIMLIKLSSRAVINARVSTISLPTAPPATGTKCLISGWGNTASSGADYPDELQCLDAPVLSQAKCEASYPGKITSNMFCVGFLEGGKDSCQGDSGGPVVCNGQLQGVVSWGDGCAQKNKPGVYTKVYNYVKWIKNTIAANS
Sequence of Plasminogen (P00747 97-580 limits assumed): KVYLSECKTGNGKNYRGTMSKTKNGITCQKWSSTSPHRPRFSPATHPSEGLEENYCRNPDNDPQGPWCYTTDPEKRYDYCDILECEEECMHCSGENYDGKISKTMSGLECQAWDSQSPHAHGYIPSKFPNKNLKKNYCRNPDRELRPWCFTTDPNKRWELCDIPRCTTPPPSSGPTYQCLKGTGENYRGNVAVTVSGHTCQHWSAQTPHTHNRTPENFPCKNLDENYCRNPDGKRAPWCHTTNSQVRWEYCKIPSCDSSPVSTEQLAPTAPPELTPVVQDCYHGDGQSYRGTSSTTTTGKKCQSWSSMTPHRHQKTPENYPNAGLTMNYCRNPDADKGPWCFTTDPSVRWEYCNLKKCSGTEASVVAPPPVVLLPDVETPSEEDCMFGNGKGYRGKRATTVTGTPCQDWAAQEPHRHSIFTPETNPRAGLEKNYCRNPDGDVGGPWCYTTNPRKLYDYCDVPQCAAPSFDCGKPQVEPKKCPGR
Sequence of Plasminogen (P00747 581-810 limits assumed): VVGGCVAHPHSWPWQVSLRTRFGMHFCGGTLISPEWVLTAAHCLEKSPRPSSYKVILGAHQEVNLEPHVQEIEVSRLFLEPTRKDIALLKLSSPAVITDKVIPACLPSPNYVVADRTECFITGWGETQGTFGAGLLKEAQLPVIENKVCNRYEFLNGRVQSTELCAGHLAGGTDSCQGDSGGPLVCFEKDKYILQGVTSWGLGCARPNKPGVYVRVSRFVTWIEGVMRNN

Increase (Serine protease 1 [1])	pIC50 (Plasminogen)	pIC50 (Prothrombin)	pIC50 (Serine protease 1 [2])	Compound
70%	–	–	–	CCC(C)C(NC(=O)CCc1ccc(O)cc1)C(=O)N1CCN(CCOC(=O)C2CCCN2)CC1 (stereo not given)
–	6.39	7.26	6.56	N=C(N)N1CCC[C@H](NC(=O)C2CC3CCC(O)CC3N2C(=O)[C@@H](Cc2ccc(O)cc2)NC(=O)[C@H](O)Cc2ccc(OS(=O)(=O)O)cc2)C1O (stereo not given in full)
–	5.06	4.99	6.06	CC[C@H](C)[C@H](NC(=O)C(O)Cc1ccc(O)c(Cl)c1)C(=O)N1C2CC(OS(=O)(=O)O)CCC2C[C@H]1C(=O)NCCCCN=C(N)N (stereo not given in full)
–	4.97	4.82	6.04	CC[C@H](C)[C@H](NC(=O)C(O)Cc1ccc(O)cc1)C(=O)N1C2CC(OS(=O)(=O)O)CCC2C[C@H]1C(=O)NCCCCN=C(N)N (stereo not given in full)
